Measurements taken from ChEMBL document CHEMBL1201862, “PubChem BioAssay data set” (2004).
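Where inhibition never reached the appropriate level, the endpoint shown equals the highest concentration tested. Otherwise, values were interpolated linearly from a five-concentration, 48-hour dose response in 96-well plates. The concentration for 50% growth inhibition is given as GI50.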 Calls of active or inactive are those of the source. Cut-off read from the data, not from the text of the source: active = GI50 up to about 1.1 µM and inactive = higher.

Columns and labels:
Experiment in all cases: NCI tumour cell line growth inhibition, 48 h
[1] = test system: ACHN
[2] = test system: NCI-H23
[3] = test system: CAKI-1
[4] = test system: Malme-3M
[5] = test system: HCT-116
[6] = test system: HCT-15
[7] = test system: SK-OV-3
[8] = test system: NCI-H226
[9] = test system: LOX IMVI
[10] = test system: NCI-H460
[11] = test system: CCRF-CEM
[12] = test system: SF-539
[13] = test system: OVCAR-8
[14] = test system: SNB-19
[15] = test system: SN12C
[16] = test system: SK-MEL-5
[17] = test system: SR
[18] = test system: U-251
[19] = test system: 786-0
[20] = test system: NCI-H522

Structure (SMILES)	GI50 [1]	GI50 [2]	GI50 [3]	GI50 [4]	GI50 [5]	GI50 [6] [µM]	GI50 [7]	GI50 [8]	GI50 [9]	GI50 [10]	GI50 [11]	GI50 [12]	GI50 [13]	GI50 [14]	GI50 [15]	GI50 [16]	GI50 [17]	GI50 [18]	GI50 [19]	GI50 [20]
CCOC(=O)/C=C(/OCC)[C@@H]1C(C(=O)c2ccc(Cl)cc2)[C@H]1/C(=C\C(=O)OCC)OCC (stereo not given in full)	> 100 µM (inactive)	> 76.9 µM (inactive)	> 100 µM (inactive)	> 100 µM (inactive)	15.5 µM (inactive)	> 100	> 100 µM (inactive)	> 100 µM (inactive)	> 100 µM (inactive)	> 100 µM (inactive)	57.4 µM (inactive)	> 100 µM (inactive)	> 100 µM (inactive)	> 100 µM (inactive)	> 100 µM (inactive)	24.9 µM (inactive)	8.73 µM (inactive)	> 100 µM (inactive)	> 100 µM (inactive)	> 45.2 µM (inactive)
FC(F)(F)c1nc2ccc(SSc3ccc4nc(C(F)(F)F)[nH]c4c3)cc2[nH]1	88.7 µM (inactive)	47.5 µM (inactive)	> 10 µM (inactive)	> 10 µM (inactive)	> 10 µM (inactive)	93.5	> 10 µM (inactive)	> 10 µM (inactive)	40.5 µM (inactive)	24.5 µM (inactive)	> 10 µM (inactive)	41.8 µM (inactive)	92.3 µM (inactive)	> 10 µM (inactive)	46.7 µM (inactive)	45.9 µM (inactive)	30.7 µM (inactive)	84.1 µM (inactive)	50.5 µM (inactive)	49 µM (inactive)
COc1ccc(N2C(=O)C3c4[nH]c5ccc(OCc6ccccc6)cc5c4C4CCC(c5ccccc5)CC4C3C2=O)cc1 (stereo not given)	7.21 µM (inactive)	9.62 µM (inactive)	8.18 µM (inactive)	2.35 µM (inactive)	11.1 µM (inactive)	11.6	4.98 µM (inactive)	19.2 µM (inactive)	15.2 µM (inactive)	4.74 µM (inactive)	4.2 µM (inactive)	3.01 µM (inactive)	8.91 µM (inactive)	11 µM (inactive)	33.7 µM (inactive)	8.22 µM (inactive)	2.37 µM (inactive)	2.54 µM (inactive)	2.67 µM (inactive)	7.43 µM (inactive)
Cc1ccc2c(O)cc(-c3ccc(C)s3)nc2n1	0.731 µM (active)	0.277 µM (active)	0.811 µM (active)	0.94 µM (active)	0.295 µM (active)	0.0863	0.746 µM (active)	0.357 µM (active)	0.472 µM (active)	0.456 µM (active)	0.276 µM (active)	0.325 µM (active)	0.652 µM (active)	0.644 µM (active)	0.556 µM (active)	0.139 µM (active)	0.0893 µM (active)	0.413 µM (active)	0.443 µM (active)	0.219 µM (active)
COC(=O)/C=C/c1ccc2c(c1)[C@H](C(=O)OC)[C@@H](c1ccc(O)cc1)O2	42.6 µM (inactive)	46.8 µM (inactive)	45.3 µM (inactive)	20.6 µM (inactive)	38.5 µM (inactive)	5.02	69 µM (inactive)	55.8 µM (inactive)	18 µM (inactive)	35.1 µM (inactive)	9.06 µM (inactive)	44.7 µM (inactive)	37 µM (inactive)	21.9 µM (inactive)	43.5 µM (inactive)	14.2 µM (inactive)	6.62 µM (inactive)	21.9 µM (inactive)	30 µM (inactive)	21.4 µM (inactive)
[N-]=[N+]=Nc1c(-c2ccccc2)c(Cl)nc2ccccc12	19.6 µM (inactive)	33.5 µM (inactive)	31.8 µM (inactive)	34.8 µM (inactive)	47.8 µM (inactive)	28.4	86.3 µM (inactive)	22.2 µM (inactive)	20.6 µM (inactive)	31.5 µM (inactive)	> 100 µM (inactive)	43.8 µM (inactive)	58.2 µM (inactive)	29.9 µM (inactive)	32.5 µM (inactive)	17.3 µM (inactive)	39.5 µM (inactive)	48 µM (inactive)	38 µM (inactive)	18.1 µM (inactive)
COc1ccc(-c2nc3cc(F)ccc3s2)cc1O	28.7 µM (inactive)	29.3 µM (inactive)	23.3 µM (inactive)	35.1 µM (inactive)	27.4 µM (inactive)	3.05	29.8 µM (inactive)	23.8 µM (inactive)	21.1 µM (inactive)	21.3 µM (inactive)	4.53 µM (inactive)	38.5 µM (inactive)	26.5 µM (inactive)	61.7 µM (inactive)	84.3 µM (inactive)	22.5 µM (inactive)	19.1 µM (inactive)	30.1 µM (inactive)	18.9 µM (inactive)	16.3 µM (inactive)
CC(C)NC(=O)OCc1c(COC(=O)NC(C)C)c(-c2ccc[n+](COC(=O)Cc3ccccc3)c2)n2c1CCC2	13.2 µM (inactive)	21.3 µM (inactive)	9.48 µM (inactive)	49 µM (inactive)	30.4 µM (inactive)	55.5	29.2 µM (inactive)	77.3 µM (inactive)	24 µM (inactive)	19.8 µM (inactive)	54.7 µM (inactive)	34.5 µM (inactive)	37.8 µM (inactive)	94.8 µM (inactive)	30.2 µM (inactive)	33.4 µM (inactive)	3.15 µM (inactive)	29.1 µM (inactive)	17.3 µM (inactive)	19 µM (inactive)
CCc1nc(N)nc(N)c1-c1ccc(Cl)c([N+](=O)[O-])c1	0.1 µM (active)	0.0887 µM (active)	0.242 µM (active)	18.4 µM (inactive)	0.0224 µM (active)	0.0685	11.2 µM (inactive)	18.2 µM (inactive)	0.0524 µM (active)	< 0.028 µM (active)	0.0557 µM (active)	0.325 µM (active)	0.074 µM (active)	10.5 µM (inactive)	1.79 µM (inactive)	0.417 µM (active)	0.0439 µM (active)	0.126 µM (active)	0.0869 µM (active)	0.719 µM (active)
CC(NC1=NCCO1)c1ccccc1Cl (stereo not given)	> 100 µM (inactive)	> 100 µM (inactive)	> 100 µM (inactive)	> 100 µM (inactive)	60.4 µM (inactive)	> 100	> 100 µM (inactive)	58.1 µM (inactive)	> 100 µM (inactive)	> 100 µM (inactive)	> 100 µM (inactive)	27.2 µM (inactive)	> 100 µM (inactive)	> 100 µM (inactive)	> 100 µM (inactive)	> 100 µM (inactive)	> 100 µM (inactive)	> 100 µM (inactive)	> 100 µM (inactive)	> 100 µM (inactive)
COc1cc2c(c(OC)c1OC)-c1c(cc3c(c1OC)OCO3)CC(C)C(C)(O)C2OC(=O)c1ccccc1 (stereo not given)	32 µM (inactive)	45.4 µM (inactive)	33 µM (inactive)	45.5 µM (inactive)	31.4 µM (inactive)	33.2	60.4 µM (inactive)	29.4 µM (inactive)	31.2 µM (inactive)	33.3 µM (inactive)	25.9 µM (inactive)	> 100 µM (inactive)	40.6 µM (inactive)	37.8 µM (inactive)	40.5 µM (inactive)	31.1 µM (inactive)	17.7 µM (inactive)	39.9 µM (inactive)	55.1 µM (inactive)	24.6 µM (inactive)
COC(=O)[C@H](CCSC)NC(=O)c1ccc(CNC(=O)/C=C/c2cccc(Oc3ccccc3)c2)cc1	> 74.6 µM (inactive)	42 µM (inactive)	> 46.5 µM (inactive)	18.8 µM (inactive)	> 100 µM (inactive)	> 62.8	> 100 µM (inactive)	> 23.8 µM (inactive)	51.8 µM (inactive)	60.5 µM (inactive)	33.1 µM (inactive)	> 74.3 µM (inactive)	> 100 µM (inactive)	> 95.1 µM (inactive)	60.5 µM (inactive)	15.6 µM (inactive)	19.7 µM (inactive)	> 100 µM (inactive)	> 100 µM (inactive)	25.8 µM (inactive)
C=C(Cl)C(Cl)(CBr)CCCC(C)C (stereo not given)	13.3 µM (inactive)	> 100 µM (inactive)	5.81 µM (inactive)	> 100 µM (inactive)	6.47 µM (inactive)	> 49.3	> 100 µM (inactive)	> 100 µM (inactive)	> 100 µM (inactive)	15.7 µM (inactive)	> 57.5 µM (inactive)	9.98 µM (inactive)	20.7 µM (inactive)	18.7 µM (inactive)	> 100 µM (inactive)	> 100 µM (inactive)	> 75.7 µM (inactive)	8.73 µM (inactive)	9.66 µM (inactive)	> 100 µM (inactive)
CCCN1C(=O)/C(=C\c2ccc(OC)c(OC)c2)S/C1=N\c1ccccc1	> 100 µM (inactive)	> 100 µM (inactive)	> 100 µM (inactive)	> 100 µM (inactive)	> 100 µM (inactive)	> 100	27.9 µM (inactive)	> 100 µM (inactive)	> 100 µM (inactive)	> 100 µM (inactive)	> 100 µM (inactive)	24.7 µM (inactive)	> 100 µM (inactive)	27.5 µM (inactive)	> 100 µM (inactive)	> 100 µM (inactive)	> 100 µM (inactive)	27.8 µM (inactive)	17.5 µM (inactive)	> 100 µM (inactive)
